# Calls of active or inactive are those of the source. How the calls were made is not given here.
# Test system: CCRIS mutagenicity, Ames/micronucleus/aberration tests
# Test: CCRIS mutagenicity studies
# [1] = Test System: AMES SALMONELLA TYPHIMURIUM, Strain/Indicator: TA98, Metabolic Activation: NONE, Method: PREINCUBATION
# [2] = Test System: AMES SALMONELLA TYPHIMURIUM, Strain/Indicator: TA100, Metabolic Activation: NONE, Method: PREINCUBATION
smiles,measurement,setting,value
Oc1ccccc1-c1ccccc1,mutagenic call,"Test System: AMES SALMONELLA TYPHIMURIUM, Strain/Indicator: TA98, Metabolic Activation: HAMSTER, LIVER, S-9, AROCLOR 1254 (10%), Method: STANDARD PLATE",inactive; negative
same,mutagenic call,"Test System: AMES SALMONELLA TYPHIMURIUM, Strain/Indicator: TA98, Metabolic Activation: HAMSTER, LIVER, S-9, AROCLOR 1254, Method: PREINCUBATION",inactive; negative
same,mutagenic call,"Test System: AMES SALMONELLA TYPHIMURIUM, Strain/Indicator: TA98, Metabolic Activation: NONE, Method: HOST-MEDIATED",inactive; negative
same,mutagenic call,[1],inactive; negative
same,mutagenic call,"Test System: AMES SALMONELLA TYPHIMURIUM, Strain/Indicator: TA98, Metabolic Activation: NONE, Method: STANDARD PLATE",inactive; negative
same,mutagenic call,"Test System: AMES SALMONELLA TYPHIMURIUM, Strain/Indicator: TA98, Metabolic Activation: RAT, LIVER, S-9, AROCLOR 1254 (10%), Method: STANDARD PLATE",inactive; negative
same,mutagenic call,"Test System: AMES SALMONELLA TYPHIMURIUM, Strain/Indicator: TA98, Metabolic Activation: RAT, LIVER, S-9, AROCLOR 1254, Method: PREINCUBATION",inactive; negative
same,mutagenic call,"Test System: AMES SALMONELLA TYPHIMURIUM, Strain/Indicator: TA100, Metabolic Activation: HAMSTER, LIVER, S-9, AROCLOR 1254 (10%), Method: STANDARD PLATE",inactive; negative
same,mutagenic call,"Test System: AMES SALMONELLA TYPHIMURIUM, Strain/Indicator: TA100, Metabolic Activation: HAMSTER, LIVER, S-9, AROCLOR 1254, Method: PREINCUBATION",inactive; negative
same,mutagenic call,"Test System: AMES SALMONELLA TYPHIMURIUM, Strain/Indicator: TA100, Metabolic Activation: NONE, Method: HOST-MEDIATED",inactive; negative
same,mutagenic call,[2],inactive; negative
same,mutagenic call,"Test System: AMES SALMONELLA TYPHIMURIUM, Strain/Indicator: TA100, Metabolic Activation: NONE, Method: STANDARD PLATE",inactive; negative
same,mutagenic call,"Test System: AMES SALMONELLA TYPHIMURIUM, Strain/Indicator: TA100, Metabolic Activation: RAT, LIVER, S-9, AROCLOR 1254 (10%), Method: STANDARD PLATE",inactive; negative
same,mutagenic call,"Test System: AMES SALMONELLA TYPHIMURIUM, Strain/Indicator: TA100, Metabolic Activation: RAT, LIVER, S-9, AROCLOR 1254, Method: PREINCUBATION",inactive; negative
same,mutagenic call,"Test System: AMES SALMONELLA TYPHIMURIUM, Strain/Indicator: TA1535, Metabolic Activation: HAMSTER, LIVER, S-9, AROCLOR 1254 (10%), Method: STANDARD PLATE",inactive; negative
same,mutagenic call,"Test System: AMES SALMONELLA TYPHIMURIUM, Strain/Indicator: TA1535, Metabolic Activation: HAMSTER, LIVER, S-9, AROCLOR 1254, Method: PREINCUBATION",inactive; negative
same,mutagenic call,"Test System: AMES SALMONELLA TYPHIMURIUM, Strain/Indicator: TA1535, Metabolic Activation: NONE, Method: PREINCUBATION",active; positive
same,mutagenic call,"Test System: AMES SALMONELLA TYPHIMURIUM, Strain/Indicator: TA1535, Metabolic Activation: NONE, Method: STANDARD PLATE",inactive; negative
same,mutagenic call,"Test System: AMES SALMONELLA TYPHIMURIUM, Strain/Indicator: TA1535, Metabolic Activation: RAT, LIVER, S-9, AROCLOR 1254 (10%), Method: STANDARD PLATE",inactive; negative
same,mutagenic call,"Test System: AMES SALMONELLA TYPHIMURIUM, Strain/Indicator: TA1535, Metabolic Activation: RAT, LIVER, S-9, AROCLOR 1254, Method: PREINCUBATION",inactive; negative
same,mutagenic call,"Test System: AMES SALMONELLA TYPHIMURIUM, Strain/Indicator: TA1537, Metabolic Activation: HAMSTER, LIVER, S-9, AROCLOR 1254 (10%), Method: STANDARD PLATE",inactive; negative
same,mutagenic call,"Test System: AMES SALMONELLA TYPHIMURIUM, Strain/Indicator: TA1537, Metabolic Activation: HAMSTER, LIVER, S-9, AROCLOR 1254, Method: PREINCUBATION",inactive; negative
same,mutagenic call,"Test System: AMES SALMONELLA TYPHIMURIUM, Strain/Indicator: TA1537, Metabolic Activation: NONE, Method: PREINCUBATION",inactive; negative
same,mutagenic call,"Test System: AMES SALMONELLA TYPHIMURIUM, Strain/Indicator: TA1537, Metabolic Activation: NONE, Method: STANDARD PLATE",inactive; negative
same,mutagenic call,"Test System: AMES SALMONELLA TYPHIMURIUM, Strain/Indicator: TA1537, Metabolic Activation: RAT, LIVER, S-9, AROCLOR 1254 (10%), Method: STANDARD PLATE",inactive; negative
same,mutagenic call,"Test System: AMES SALMONELLA TYPHIMURIUM, Strain/Indicator: TA1537, Metabolic Activation: RAT, LIVER, S-9, AROCLOR 1254, Method: PREINCUBATION",inactive; negative
same,mutagenic call,"Test System: AMES SALMONELLA TYPHIMURIUM, Strain/Indicator: TA1538, Metabolic Activation: HAMSTER, LIVER, S-9, AROCLOR 1254 (10%), Method: STANDARD PLATE",inactive; negative
same,mutagenic call,"Test System: AMES SALMONELLA TYPHIMURIUM, Strain/Indicator: TA1538, Metabolic Activation: NONE, Method: STANDARD PLATE",inactive; negative
same,mutagenic call,"Test System: AMES SALMONELLA TYPHIMURIUM, Strain/Indicator: TA1538, Metabolic Activation: RAT, LIVER, S-9, AROCLOR 1254 (10%), Method: STANDARD PLATE",inactive; negative
same,mutagenic call,"Test System: CHO/HGPRT, Strain/Indicator: CHO/GIEMSA, Metabolic Activation: NONE, Method: STANDARD PLATE",active; positive
same,mutagenic call,"Test System: CHO/HGPRT, Strain/Indicator: CHO/GIEMSA, Metabolic Activation: RAT, LIVER, S-9, AROCLOR 1254, Method: STANDARD PLATE",inactive; negative
same,mutagenic call,"Test System: E. COLI, Strain/Indicator: WP2, Metabolic Activation: NONE, Method: HOST-MEDIATED",inactive; negative
same,mutagenic call,"Test System: Mouse lymphoma, Strain/Indicator: L5178Y (tk+/tk-), Metabolic Activation: None, Method: Suspension/plate",inactive; negative
same,mutagenic call,"Test System: Mouse lymphoma, Strain/Indicator: L5178Y (tk+/tk-), Metabolic Activation: Rat, Liver, S-9, Aroclor 1254, Method: Suspension/plate",active; equivocal (previously evaluated positive)
O=[N+]([O-])c1ccc(CO)c([N+](=O)[O-])c1,mutagenic call,[1],active; positive
same,mutagenic call,"Test System: AMES SALMONELLA TYPHIMURIUM, Strain/Indicator: TA98, Metabolic Activation: RAT, LIVER, S-9, AROCLOR, Method: PREINCUBATION",active; positive
same,mutagenic call,"Test System: AMES SALMONELLA TYPHIMURIUM, Strain/Indicator: TA98, Metabolic Activation: RAT, LIVER, S-9, PHENOBARBITAL AND 5,6-BENZOFLAVONE, Method: PREINCUBATION",active; positive
same,mutagenic call,[2],active; positive
same,mutagenic call,"Test System: AMES SALMONELLA TYPHIMURIUM, Strain/Indicator: TA100, Metabolic Activation: RAT, LIVER, S-9, PHENOBARBITAL AND 5,6-BENZOFLAVONE, Method: PREINCUBATION",active; positive

# From PubChem BioAssay AID1259407 (Chemical Carcinogenesis Research Information System (CCRIS), 2018)
